Experimental data published in patent US20110251069A1, “ISOXAZOLE DERIVATIVES FOR USE AS PLANT GROWTH REGULATORS” (SYNGENTA CROP PROTECTION LLC, priority 2008, published 2011).

Test system: wheat plants cultivar (cv.). Riband
Experiment: Biological evaluation of plant growth regulation effects on wheat
Assay type: in vivo
Details: 200 ppm; 2 weeks old wheat plants cv. Riband sprayed with formulated compound; assessed after 8 days at 22° C. and 80% r. h. in a greenhouse
Protocol: Biological Evaluation of Plant Growth Regulation Effects on Wheat
2 weeks old wheat plants cultivar (cv.). Riband were treated with the formulated test compound in a spray chamber. After an incubation period of 8 days at 22° C. and 80% relative humidity (r. h.) in a greenhouse, the plant growth regulating effects were assessed.

OC(c1cccnc1)c1c(-c2ccccc2Cl)csc1-c1ccc(F)cc1F (stereo not shown) [Compound 175, 2-(2,4-Difluorophenyl)-4-(2-chlorophenyl)-3-[(3-pyridyl)hydroxymethyl]-thiophene]
plant growth regulating effects: plant height decrease
